Measured values taken from ChEMBL document CHEMBL1145841, “Design and synthesis of poly ADP-ribose polymerase-1 inhibitors. 2. Biological evaluation of aza-5[H]-phenanthridin-6-ones as potent, aqueous-soluble compounds for the treatment of ischemic injuries” (J Med Chem, 2003).
Values belong to the compound of their own block, whether it stands above or below them.

Tests used:
[1] = Maximum concentration in plasma of rats after intravenous administration; format: ADME, organism-based; design: route intravenous; settings: rat
[2] = Maximum concentration in heart of rats after intravenous administration; format: ADME, organism-based; design: route intravenous; settings: rat
[3] = biological target: Poly [ADP-ribose] polymerase 1 (Homo sapiens, UniProt P09874); assay: Inhibitory activity against Poly (ADP-ribose) polymerase 1
[4] = Maximum concentration in brain of rats after intravenous administration; format: ADME, organism-based; design: route intravenous; settings: rat
[5] = tested on: P388; assay: Effective concentration required to inhibit P388D1 cell death by 50%; format: functional, cell-based; settings: Mus musculus
[6] = tested on: Rattus norvegicus; assay: Cerebral Ischemic stroke was expressed to determine the reduction in infarct volume at a dose of 80 mg/kg administered intravenously i in rats; format: functional; settings: route intravenous
[7] = tested on: Rattus norvegicus; assay: Cerebral Ischemic stroke was expressed to determine the reduction in infarct volume at a dose of 20 mg/kg administered intravenously i in rats; format: functional; settings: route intravenous
[8] = tested on: Rattus norvegicus; assay: Cerebral Ischemic stroke was expressed to determine the reduction in infarct volume at a dose of 40 mg/kg administered intravenously in rats; format: functional; settings: route intravenous
[9] = tested on: Rattus norvegicus; assay: Myocardial Ischemic stroke was expressed to determine the reduction in infarct volume at a dose of 80 mg/kg administered intravenously in rats; format: functional, Myocardium; settings: route intravenous
[10] = tested on: Rattus norvegicus; assay: Cerebral Ischemic stroke was expressed to determine the reduction in infarct volume at a dose of 40 mg/kg administered intravenously i in rats; format: functional; settings: route intravenous
[11] = tested on: Rattus norvegicus; assay: Myocardial Ischemic stroke was expressed to determine the reduction in infarct volume at a dose of 40 mg/kg administered intravenously in rats; format: functional, Myocardium; settings: route intravenous
[12] = tested on: Rattus norvegicus; assay: Cerebral Ischemic stroke was expressed to determine the reduction in infarct volume at a dose of 40 mg/kg administered intraperitoneally in rats; format: functional; settings: route intraperitoneal
[13] = tested on: Rattus norvegicus; assay: Cerebral Ischemic stroke was expressed to determine the reduction in infarct volume at a dose of 80 mg/kg administered intravenously in rats; format: functional; settings: route intravenous
[14] = tested on: Rattus norvegicus; assay: Myocardial Ischemic stroke was expressed to determine the reduction in infarct volume at a dose of 20 mg/kg administered intravenously in rats; format: functional, Myocardium; settings: route intravenous
[15] = tested on: Rattus norvegicus; assay: Cerebral Ischemic stroke was expressed to determine the reduction in infarct volume at a dose of 80 mg/kg administered intraperitoneally in rats; format: functional; settings: route intraperitoneal

Poly [ADP-ribose] polymerase 1, sequence (P09874 whole entry): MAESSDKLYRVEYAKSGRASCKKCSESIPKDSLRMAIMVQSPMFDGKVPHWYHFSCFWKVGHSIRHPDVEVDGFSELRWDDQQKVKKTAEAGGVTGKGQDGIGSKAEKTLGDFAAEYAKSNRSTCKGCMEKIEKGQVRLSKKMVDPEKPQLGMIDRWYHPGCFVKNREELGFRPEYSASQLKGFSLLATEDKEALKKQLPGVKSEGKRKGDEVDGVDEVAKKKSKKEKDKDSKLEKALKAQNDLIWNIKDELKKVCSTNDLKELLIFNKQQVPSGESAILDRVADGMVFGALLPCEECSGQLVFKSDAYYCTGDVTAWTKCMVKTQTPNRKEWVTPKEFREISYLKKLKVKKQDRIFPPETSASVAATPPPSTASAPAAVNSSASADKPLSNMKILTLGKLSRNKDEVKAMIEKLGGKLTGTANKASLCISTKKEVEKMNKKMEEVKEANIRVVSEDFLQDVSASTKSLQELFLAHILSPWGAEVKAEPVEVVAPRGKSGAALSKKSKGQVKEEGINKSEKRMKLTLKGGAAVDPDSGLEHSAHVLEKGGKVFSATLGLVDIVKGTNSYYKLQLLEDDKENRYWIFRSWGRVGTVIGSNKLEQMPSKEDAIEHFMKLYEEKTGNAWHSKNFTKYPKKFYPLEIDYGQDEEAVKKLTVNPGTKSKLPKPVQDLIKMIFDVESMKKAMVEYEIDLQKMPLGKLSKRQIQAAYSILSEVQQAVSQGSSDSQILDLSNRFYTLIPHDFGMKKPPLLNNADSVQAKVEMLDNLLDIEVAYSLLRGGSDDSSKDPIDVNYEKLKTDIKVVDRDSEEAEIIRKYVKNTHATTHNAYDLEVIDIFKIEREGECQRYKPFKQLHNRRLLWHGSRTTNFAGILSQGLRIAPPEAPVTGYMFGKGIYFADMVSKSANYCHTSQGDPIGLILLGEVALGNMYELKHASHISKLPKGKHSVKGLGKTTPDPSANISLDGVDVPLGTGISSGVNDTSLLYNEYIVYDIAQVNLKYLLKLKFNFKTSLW

Structure (SMILES): CS(=O)(=O)O.Oc1nc2ccc(N3CCNCC3)nc2c2ccccc12
Cmax [1]: 3790 ng/mL | Cmax [2]: 20300 ng/g | IC50 [3]: 58 nM | Cmax [4]: 2180 ng/g | EC50 [5]: 150 nM

Structure (SMILES): CN1CCN(c2ccc3nc(O)c4ccccc4c3n2)CC1.CS(=O)(=O)O
Cmax [1]: 456 ng/mL | Reduction [6]: 35% | Cmax [2]: 2980 ng/g | Reduction [7]: 33% | Reduction [8]: 44% | Cmax [4]: 13700 ng/g | Reduction [9]: 25.5% | Reduction [10]: 18% | Reduction [11]: 18.8%

Structure (SMILES): Oc1nc2ccc(N3CCC(N4CCCC4)CC3)nc2c2ccccc12
EC50 [5]: 177 nM

Structure (SMILES): O=C(CN1CCCCC1)Nc1ccc2nc(O)c3ccccc3c2n1
EC50 [5]: 1110 nM

Structure (SMILES): CN1C[C@H]2C[C@@H]1CN2c1ccc2nc(O)c3ccccc3c2n1
EC50 [5]: 240 nM

Structure (SMILES): CN(C)CC(=O)Nc1ccc2nc(O)c3ccccc3c2n1
EC50 [5]: 2080 nM

Structure (SMILES): CN(C)C1CCN(c2ccc3nc(O)c4ccccc4c3n2)CC1
IC50 [3]: 112 nM | EC50 [5]: 135 nM

Structure (SMILES): CN1CCN(c2ccc3nc(O)c4ccccc4c3n2)CC1
EC50 [5]: 125 nM

IC50 [3]: 209 nM
Structure (SMILES): Nc1ccc2[nH]c(=O)c3ccccc3c2n1

Structure (SMILES): CC(C)N1CCN(CC(=O)Nc2ccc3nc(O)c4ccccc4c3n2)CC1
IC50 [3]: 277 nM

Cmax [1]: 10 ng/mL
Structure (SMILES): C[N+]1([O-])CCN(c2ccc3nc(O)c4ccccc4c3n2)CC1
EC50 [5]: 5800 nM

IC50 [3]: 20000 nM
Structure (SMILES): NC(=O)c1ccccc1 [BENZAMIDE]

IC50 [3]: 173 nM
Structure (SMILES): CCN(CC)CCNc1ccc2[nH]c(=O)c3ccccc3c2n1

IC50 [3]: 774 nM
Structure (SMILES): CC(C)(C)OC(=O)N1C[C@H]2C[C@@H]1CN2c1ccc2[nH]c(=O)c3ccccc3c2n1

Structure (SMILES): Oc1nc2ccncc2c2ccccc12
Reduction [12]: 47%

IC50 [3]: 350 nM
Structure (SMILES): O=c1[nH]c2ccccc2c2ccccc12
Reduction [12]: -7%

Cmax [1]: 4790 ng/mL | Cmax [2]: 38400 ng/g | Cmax [4]: 1440 ng/g
Structure (SMILES): Cl.O=C(CN1CCC(N2CCCC2)CC1)Nc1ccc2nc(O)c3ccccc3c2n1
Reduction [13]: -1% | EC50 [5]: 1270 nM | Reduction [9]: 44% | Reduction [14]: 13% | Reduction [11]: 39%

Structure (SMILES): CN(C)CC(=O)Nc1cnc2c(c1)nc(O)c1ccccc12
EC50 [5]: 2630 nM

Structure (SMILES): Oc1nc2ccc(N3C[C@H]4C[C@@H]3CN4)nc2c2ccccc12
IC50 [3]: 42 nM

Structure (SMILES): O=C(CN1CCC(N2CCCC2)CC1)Nc1cnc2c(c1)nc(O)c1ccccc12
EC50 [5]: 1140 nM

IC50 [3]: 169 nM
Structure (SMILES): O=c1[nH]c2cnccc2c2ccccc12

Structure (SMILES): CS(=O)(=O)O.Oc1nc2ccc(N3CCN(CC4CC4)CC3)nc2c2ccccc12
Cmax [1]: 1950 ng/mL | Cmax [2]: 7480 ng/g | IC50 [3]: 71 nM | Cmax [4]: 8850 ng/g | EC50 [5]: 145 nM | Reduction [11]: 36%

Structure (SMILES): O=c1[nH]c2cccnc2c2ccccc12
Reduction [15]: 55%
